Each structure is given as a SMILES string.

Assay type in all cases: cell-based, human
Test [1] has as its system Mfn2. Nature of the test: Mfn2 modification and degradation in A-T/LV shRNA cells treated with mitochondrial depolarizing agents. As for the experimental part: Immunoblotting Analysis of Mitochondrial Proteins—Mitochondria were isolated from A-T/LV control and ISG15 shRNA cells using the Miochondrial Isolation Kit (Thermo Scientific Company, 89874). The Dounce homogenization protocol described by the manufacturer was used to isolate mitochondria from cells. Mitochondrial pellets were resuspended in lysis buffer containing 50 mM Tris pH 7.5 and 4% (v/v) SDS. Samples were homogenized and boiled for 10 min. Lysates containing equal protein were then mixed with 6× Laemmli SDS sample buffer (3× final concentration). Samples were boiled again and mitochondrial proteins were analyzed by SDS-PAGE. Immunoblotting analyses using either anti-ISG15 (raised against human ISG15) (20), anti-ubiquitin (gift from Dr. Arthur Haas, at LSUHSC—New Orleans), or anti-mitofusin 2 (Abcam, ab88569) antibodies were carried out using the ECL Western procedure (Pierce, 34076) and the BioRad VersaDoc Imaging System (BioRad). Immunoblotting Analysis of HA Polyubiquitylated Proteins in Cells: Cells were transfected with HA-ubiquitin using the PolyFect transfection reagent (Qiagen, 301105). Twenty four hours after transfection, mitochondria were isolated as described above. Mitochondrial lysis, SDS-PAGE, and immunoblotting analysis to detect HA-ubiquitin conjugated proteins using anti-HA antibodies were carried out as described above. Immunoblotting Analysis of Mfn2 in Cells: Cells were lysed in lysis buffer containing 50 mM Tris-HCl, pH 7.5, 2% SDS, and protease inhibitor cocktail. Lysates were sonicated, boiled, and cleared by centrifugation. Lysates containing equal protein were then mixed with 6× Laemmli SDS sample buffer (3× final concentration). Samples were boiled again and proteins were separated by 15% SDS-PAGE. Immunoblotting analysis was carried out using anti-Mfn2 antibodies (Abcam) as described above. Intensity of the Mfn2 bands was quantitated using BioRad Quantity One software. Statistical analysis—Statistical analysis was carried out using GraphPad software.
Many outer mitochondrial membrane (OMM) proteins are ubiquitylated and degraded via the 26S proteasome prior to mitophagy in cells treated with the mitochondrial depolarizing agents (28,29). To test whether ISG15 inhibits polyubiquitylation of OMM proteins, we assessed the fate of Mfn2, an OMM protein and proteasome substrate, in A-T/LV-control and A-T/LV-ISG15-silenced cells treated with two different mitochondrial depolarizing agents, valinomycin and carbonylcyanide m-chlorophenylhydrazone (CCCP). Consistent with the literature reports (29,35,36), we observed a ladder of high molecular weight anti-Mfn2 cross-reactive bands above the 86 kDa Mfn2 protein band that is reminiscent of polyubiquitylation, in both ISG15-silenced and ISG15 overexpressing A-T cells (FIGS. 34 A and B, left panels). The endogenous level of these high molecular weight Mfn2 cross-reactive bands was remarkably higher in ISG15-silenced as compared to the ISG15-overexpressing A-T cells in the absence of any drugs (FIGS. 34A and B, first panels, compare lanes 1 and 4). […] In contrast, the level of these Mfn2 cross-reactive high molecular weight bands decreased under the same drug treatment conditions in ISG15-silenced A-T cells (FIGS. 34A and B, first panels, lanes 4-6, and the accompanying bar graph in the second panel for quantitation). […] The bar graphs in FIGS. 34A and B, third panels, show mean values of the ratio between free Mfn2 (86 kDa band) and actin proteins (±SEM) in CCCP-treated A-T/LV-control and ISG15 shRNA cells measured from eight independent experiments, and valinomycin-treated A-T/LV-control and ISG15 shRNA cells measured from three independent experiments respectively.

The test system of test [2] is Mfn2. Nature of the test: MFN2 modification and degradation in HEK293 cells treated with CCCP. The settings on record: HEK cells, CCCP 10 μM, 24 h. The text has this: MFN2 is conjugated to SUMO-1/2/3 and ubiquitin, and is degraded in HEK293 cells treated with CCCP. We confirmed CCCP-induced MFN2-SUMO/ubiquitin modification and degradation in “normal” HEK293 cells. […] However, CCCP-mediated decrease in MFN2 was proteasome-dependent (FIG. 37D). Together, our results using A-T and HEK293 cells reveal that MFN2 is SUMOylated in response to CCCP treatment.

The test system of test [3] is polyubiquitylated proteins. Nature of the test: Camptothecin-induced degradation of polyubiquitylated proteins in A-T cells. The settings on record: CPT 10 μm, 24 hr. As for the experimental part:
To test the generality of this observation, the anticancer drug camptothecin (CPT), a genotoxic agent (37, 48-50), which is known to sensitize A-T cells (37), like UV, was used to induce degradation of polyubiquitylated proteins in A-T cells. In FIG. 8E, A-T cells were treated with camptothecin (CPT; 10 μm) in the presence or absence of Bafl (1 nm) for 24 hr. Ubiquitin conjugated proteins using anti-ubiquitin antibodies were detected as described herein for FIG. 8A. The experiment was repeated three times.

On to `N#CC(C#N)=NNc1cccc(Cl)c1` [CCCP, carbonylcyanide m-chlorophenylhydrazone], for which the “free MFN2 protein level” value in test [1] (CCCP-treated ISG15 overexpressing A-T cells) is listed as “remained unaffected”. For the same compound, the “decrease in the free MFN2 level” value in test [1] (ISG15-silenced A-T cells, CCCP 24 h, cell lysates and immunoprecipitates) is 20%. Also, the “free Mfn2 protein level” value in test [1] (ISG15 overexpressing A-T cells, 24 hr) is given as “slightly increased”. In test [2], the “conjugation of SUMO-1, SUMO-2/3, and ubiquitin to MFN2” value is “induces conjugation”; the “degradation of MFN2” value is recorded as 20%.

On to `CC[C@@]1(O)C(=O)OCc2c1cc1n(c2=O)Cc2cc3ccccc3nc2-1` [CPT, camptothecin], for which the “degradation of endogenous polyubiquitylated proteins” value in test [3] is given as “induced degradation”.
